Take `COc1cc(CC(=O)O)cc(OC)c1OC`: the melting point worked out at 120 °C. The value for `Sc1ccccc1S` was 28.5 °C; that for `O=C(CCl)OC(=O)CCl` was 57.5 °C.

Compound `N#Cc1c[nH]nc1N` yielded a melting point of 175 °C.

Turning to `COC1=CC(=O)C2(C)CCC1C2(C)C` (stereo unspecified), the melting point came to 55 °C. The value for `Nc1cc(-c2ccccc2)nn1-c1ccccc1` was 131 °C; that for `COC(=O)[C@H](CC(=O)O)Cc1cccc2ccccc12` was 113 °C. The value for `O=C(N=Nc1ccccc1)NNc1ccccc1` was 153 to 157 °C; that for `Fc1c(F)c(Br)c(F)c(F)c1Br` was 78 to 81 °C. The value for `O=[N+]([O-])c1ccc(Br)c([N+](=O)[O-])c1` was 72 °C; that for `CC(=O)N(C)C(=O)COC(=O)c1ccccc1` was 102 °C. As to `O=C(CCl)c1cc(C(=O)CCl)c([N+](=O)[O-])cc1[N+](=O)[O-]`, the melting point is 148 °C. In turn, `COC(=O)c1c(C)cc(OC(=O)c2c(C)cc(O)c(C=O)c2O)c(C)c1O` registered a melting point of 195 °C.

Compound `CSc1c(C#N)c(N)nc2c(/N=N/c3ccc(C(=O)O)cc3)c(N)nn12` yielded a melting point of 305 to 307 °C. The same measure for `CC(CCC(O)(c1ccccc1)c1ccccc1)C1CCC2C3C(O)CC4CC(O)CCC4(C)C3CC(O)C12C` (stereo unspecified): 162 to 170 °C. The value for `Cn1c(=O)c(C2=NNC(=O)C2=NNc2ccncc2)c(O)c2ccccc21` was 294 °C. The same measure for `O=C(C1=NOC2C(=O)N(c3cccc([N+](=O)[O-])c3)C(=O)C12)c1cccc2ccccc12` (stereo unspecified): 191 °C. Regarding `Cc1cccc(Cl)c1I`, the melting point turned out to be 27 °C. Compound `COCCOCCOCCOC` yielded a melting point of -45 °C.

Compound `N[C@@H](c1ccccc1)c1c(O)ccc2ccccc12` gave a melting point of 133 to 137 °C. The same measure for `COc1ccc(-c2csc(/C(C#N)=C/c3ccccc3Cl)n2)cc1`: 222 °C; for `C1=C(c2ccccc2)Cc2ccccc21`: 166 to 167 °C; for `Cc1ccc(-c2ccc(/C=C3\C=C(CC(C)C)OC3=O)o2)cc1`: 78 °C.

`COc1ccc(C(=O)C=Cc2ccc(-c3ccccc3OC)o2)cc1OC` registered a melting point of 144 to 145 °C. The value for `O=C(O)c1cccc(N2CCOCC2)n1` was 127 to 129 °C; that for `O=C(CC(=O)C(F)(F)F)c1ccc2c(c1)OCO2` was 108 to 109 °C. Compound `CC(C)(C)c1cc(C(=S)Nc2ccccc2)cc(C(C)(C)C)c1O` showed a melting point of 227 to 228 °C. The same measure for `CC(=O)c1nn2c(C(F)(F)F)nnc2s1`: 200 °C; for `Cc1cccc(C)c2cc(C(C)C)cc1-2`: 32.3 °C; for `COc1ccc(-n2nc(C(=O)c3cccs3)sc2=N)cc1`: 164 °C. The same measure for `O=C1COc2ccc(S(=O)(=O)Cl)cc2N1`: 178 °C; for `CC(=O)Oc1ccc2cc(OC(C)=O)ccc2c1`: 215 °C. The same measure for `O=C1NN(c2ccccc2)C(=O)C1=CNc1ccccc1`: 276 °C. `ICCCCCCCCI` had a melting point of 16 to 21 °C. The same measure for `C=C(C)C(=O)OCCOC(=O)c1cc([N+](=O)[O-])cc([N+](=O)[O-])c1`: 71 °C. The same measure for `ClC(Cl)(Br)C(Cl)(Cl)Br`: 220 to 222 °C; for `COc1cc2c(cc1OCc1ccccc1)C(C)NCC2` (stereo unspecified): 91 °C. The same measure for `CCCCCOC(=O)CCCC`: -78.8 °C; for `c1ccc2c(c1)CCCN2`: 20 °C. For `O=C(C(=O)c1cc(Br)ccc1O)c1cc(Br)ccc1O`, the melting point was 212 °C. Turning to `Fc1cc(I)ccn1`, the melting point came out at 58 °C. The value for `Cc1ccc(C(C)CCC(=O)O)cc1` (stereo unspecified) was 42 °C. In turn, `O=C(O)c1cccc(N2CCCC2)n1` had a melting point of 134 to 136 °C. The same measure for `CCCC(=O)OCN1C(=O)NC(c2ccccc2)(c2ccccc2)C1=O`: 131 °C. The same measure for `Cc1nn(C)c(C)c1Br`: 35 °C; for `Nc1nc(-c2ccc(Cl)cc2)cs1`: 169 °C; for `Cc1cc(O)c2ccccc2c1O`: 169 °C. For the compound `O=C(Cl)c1ccc(-c2ccco2)cc1`, the melting point lay in the range of 101 to 103 °C. The same measure for `COc1ccc(CCCCO)cc1`: 3.5 °C; for `CC(C)NCC(O)c1ccc(O)c(O)c1` (stereo unspecified): 170 °C. The same measure for `N=C(c1ccccc1)c1ccccc1`: -30 °C.

Turning to `Nc1c(Cl)c(Cl)nc(Cl)c1Cl`, the melting point was 212 to 215 °C. The value for `Clc1ccc(-c2csc3nc4ccccc4n23)cc1` was 200 to 203 °C; that for `NS(=O)(=O)c1ccc(-c2ccc(C=O)o2)cc1` was 199 to 201 °C; that for `NC(=S)Nc1ccccc1F` was 143 to 145 °C. The value for `CCCCCCN1CC(C(=O)OC)CC1=O` (stereo unspecified) was 4 °C. On to `Cc1ccc(Cl)cc1C`, for which the melting point was -6 °C. The same measure for `CC12C=CC(CC1)C2(C)C` (stereo unspecified): 113 °C; for `COc1cc(CCO)ccc1O`: 41 °C. The same measure for `CC1(C)C(=O)N(Cl)C(=O)N1Br`: 164 °C; for `CC(=O)Oc1ccc2c(c1)c(OC(C)=O)c(-c1ccccc1)n2OC(C)=O`: 194 to 196 °C. The same measure for `O=S1(=O)CC(O)C(Br)C1` (stereo unspecified): 190 to 192 °C; for `COc1ccccc1NC(=O)c1cncc(Cl)n1`: 72 °C.

Compound `Ic1cc2ccccc2c2ccccc12` had a melting point of 92 °C.

Turning to `CCC(=O)Cl`, the melting point is -94 °C. The value for `Cc1cc(C)c(CC(=O)c2oc3ccccc3c2NC(=O)c2ccccc2)c(C)c1` was 198 to 199 °C; that for `O=[N+]([O-])c1cccc(-c2nnc3n2NCS3)c1` was 200 °C; that for `O=C(CCCCl)c1ccc(F)cc1` was 6 °C. `N#CC(C#N)=c1ccc(=C(C#N)C#N)cc1` had a melting point of 287 to 289 °C. `CC(=O)CO` had a melting point of -17 °C. The same measure for `Clc1cncc(Oc2ccc(Cl)nn2)c1`: 112 to 114 °C. The value for `OCC1CCN(c2ncnc3ccsc23)CC1` was 126 to 128 °C. The value for `CC(C)(C)OC(=O)C(C)(C)Sc1nnc(N)s1` was 175 to 176 °C; that for `OC(CBr)C(O)CBr` (racemic) was 82 to 84 °C; that for `CC1(C)C(=O)OC2=C(CCCC2=Cc2ccccc2)C1c1ccccc1` (stereo unspecified) was 155 to 157 °C.

On to `Cc1nnc(-c2ccccn2)nc1C`, for which the melting point was 85 °C. The same measure for `O=S1(=O)Cc2cccc3cccc(c23)C1`: 238 to 240 °C; for `CC(=O)CCc1ccc(CCC(C)=O)cc1`: 55 to 56 °C; for `CCCCC(N)P(=O)(O)O` (stereo unspecified): 267 to 269 °C.

`CCOC(=O)c1cnc(N)nc1C` gave a melting point of 224 to 225 °C. In turn, `N#CC1(c2c(F)cccc2Cl)CCCCC1` yielded a melting point of 76 to 81 °C. The same measure for `Cc1ccc(NC(N)=S)cc1`: 186 to 188 °C; for `CCCCOCOCCCC`: -58.1 °C.

Compound `CSc1ccc(C(=O)O)s1` returned a melting point of 103 to 105 °C.

Regarding `O=[N+]([O-])c1cccc2cccc(/C=N\c3ccccc3)c12`, the melting point lay within 114 to 115 °C.

As to `CCC1CC(NC(=O)CNC(=O)CBr)C(C)(C)N1O` (stereo unspecified), the melting point is 145 to 147 °C. `CC(C)(C)c1cc(C(=O)NN)[nH]n1`: the melting point is 177 to 181 °C. `N#Cc1sccc1Br` had a melting point of 49 °C. The same measure for `CNN=C(N)C(S)=NNC`: 185 °C; for `O=C(CBr)c1ccc(C(F)(F)F)cc1`: 45 to 46 °C; for `[N-]=[N+]=Nc1ccc(Br)cc1`: 20 °C. The value for `C/C=C/C1Nn2c(nnc2-c2cccnc2)S1` (stereo unspecified) was 120 to 122 °C; that for `CC12CCC(O)CC1CCC1C2C(O)CC2(C)C(C3=CC(=O)OC3)CCC12O` (stereo unspecified) was 280 °C; that for `Cc1nc(C2CCN(C(=O)OC(C)(C)C)CC2)sc1C(=O)O` was 124 to 128 °C. The value for `O=Cc1cc2cc(Br)ccc2o1` was 129 to 130 °C. For the compound `O=C(O)COc1ccc(Cl)cc1CO`, the melting point was 141 °C. The value for `Clc1cc2c(c(Cl)c1Cl)Oc1cc(Cl)c(Cl)c(Cl)c1O2` was 285 °C. As to `CNc1ccccc1C(=O)O`, the melting point was 180 °C. The value for `CC1CCC2C(C)(C)C3CC12CCC3(C)O` (stereo unspecified) was 86 °C; that for `CCCCCCCCNC(=S)NN` was 47 to 49 °C; that for `Brc1n[nH]c(Br)n1` was 201 °C.

Turning to `Cc1cccc(P(c2cccc(C)c2)c2cccc(C)c2)c1`, the melting point was 100 to 103 °C. The same measure for `c1ccc2c(c1)OCCOCCOCCO2`: 48 to 50 °C; for `CCCC1C2C(=O)N(c3ccccc3)C(=O)C2ON1c1ccccc1` (stereo unspecified): 107 to 108 °C; for `Cc1cc([N+](=O)[O-])cnc1Cl`: 78 to 80 °C.

In turn, `CCCCCOc1ccc(/N=N/c2ccc(CCCC)cc2)cc1` had a melting point of 40.5 to 43 °C. The value for `NC(CP(=O)(O)O)C(=O)O` (stereo unspecified) was 227 to 229 °C; that for `CC1(C)C2CCC1(C)C(C(=O)O)OC2=O` (stereo unspecified) was 201 °C; that for `CC(C)CC#N` was -101 °C.

With `CCCCCCCCCCCCCCCCOCC(O)CO` (stereo unspecified), the melting point is 64 °C. The value for `CC(C)(C)OC(=O)Nc1ccco1` was 98 to 100 °C; that for `O=C1NC2NC(=O)NC2N1` (stereo unspecified) was 300 °C. The same measure for `Oc1cccc(F)c1F`: 36 °C. The same measure for `O=C1C(c2ccccc2)=C(c2ccccc2)c2ccccc21`: 151 to 155 °C; for `NCCCS(=O)(=O)O`: 270 °C.

Regarding `CC(C)C(=O)NN`, the melting point is 97 to 100 °C.

These data come from a melting point compilation (Tetko et al.).
